Here are results for six compounds from patent US7049396B2, “Synthetic peptides that inhibit leukocyte superoxide anion production and/or attract leukocytes” (priority 1995, dated 2006).

What is called MBC is the smallest concentration meeting the test's criterion for killing. Read a high MBC as less potent killing. Usually MIC stands for the least concentration at which growth counts as inhibited. Low values mean greater potency, high ones weaker potency.

The test system of data set [1] is E. coli, ATCC 25922. The data set is described as follows: Gel-overlay antibacterial assay. It is filed as cell-based, Escherichia coli. The conditions noted are these: 10 μg peptide per lane, AU-PAGE gel overlaid with E. coli, 18 hr.
The subject of data set [2] is E. coli, ATTC 25922. The data set is described as follows: Lawn-spotting antibacterial assay (E. coli). The conditions noted are these: 5 μl spotted, inactive segments up to 1 mg/ml. The format is cell-based, Escherichia coli.
In data set [3] the test system is S. typhimurium, KSU isolate 7. The data set is described as follows: Lawn-spotting antibacterial assay (S. typhimurium). The conditions noted are these: 5 μl spotted, inactive segments up to 1 mg/ml. The format is cell-based, Salmonella typhimurium.
Data set [4] concerns porcine neutrophils. The data set is described as follows: Neutrophil chemotaxis, modified Boyden chamber. The conditions noted are these: peptide at 1 μM, 30 min. The format is cell-based. On the procedure:
Influence of PR-39 on neutrophil chemotaxis. Chemotaxis of porcine neutrophils was measured by the procedure of Salak et al. (1993). Briefly, PR-14, PR15, PR-16, PR-26, or PR-39 (30 μl in Dulbecco's Modified Eagle's medium) were placed in the bottom chamber of a modified Boyden chamber (Neuro Probe, Cabin John, Md.) and porcine neutrophils (50 μl at 5×10^6 cells/ml) were placed in the top chamber. The chambers were incubated at 37° C. for 30 min. Cells that migrated through the porous membrane (pore size 5 μm) were stained using LeukoStat solution and enumerated. Five microscope fields were counted and the cells that migrated through the membrane were standardized to the medium control and referred to as the migration index.

For data set [5], the system named is whole-cell NADPH oxidase activity of porcine peripheral blood neutrophils. The data set is described as follows: Whole-cell O2- production, ferricytochrome c reduction. It is filed as cell-based. The conditions noted are these: incubated 150 min. before PMA stimulation. On the procedure:
Regulation of neutrophil O2^− production by PR-26 and PR-39. • (i) O2^− production assays. Whole-cell O2^− production by por-cine peripheral blood neutrophils was determined by the superoxide dismutase-inhibitable reduction of ferricytochrome c as previously described (Shi et al., 1994a). Cell-free O2^− production was measured as previously described (Leto et al., 1991) using 96-well plates and a Molecular Devices Thermomax microplate reader (Menlo Park, Calif.). Reactions (100 μl) contained 10^6 cell equivalents of human neutrophil cytosol and 5×10^5 cell equivalents of deoxycholate-solubilized membranes prepared from human peripheral blood neutrophils. Reaction mixtures contained 50 mM potassium phosphate (pH 7), 0.2 mM acetylated cytochrome c, 4 mM MgCl2, 1 mM EGTA, 10 μM FAD, 1 μM GTP-γS, and 200 μM NADPH. The reactions were initiated by addition of 40 μM arachidonic acid. Control reactions contained 5 μg of superoxide dismutase. Superoxide anion generation was calculated based on superoxide dismutase-inhibitable changes in cytochrome c absorbance observed at 551 nm. The reactions were followed for 20 min. after addition of arachidonic acid, with absorbance readings taken at 1-min. intervals. Maximum rates of superoxide generation were calculated from a linear least squares fit of 10 consecutive 1-min. data points. Determinations were based on reactions performed in duplicate. • (ii) Binding assays. Neutrophils were disrupted by sonication, and unbroken cells, debris, and granules were removed by centrifuigation (13,000×g for 60 min.). Cytosol fractions were prepared by centrifugation (100,000 g for 45 min.) of the supernatants to remove residual membranes. Cytosolic proteins (15 μg in reducing buffer) were separated on a 7.5% SDS PAGE gel, transferred to PVDF membranes, and probed with biotinylated PR-39 (0.3 μM) for 2 hr. Binding between PR-39 and cytosolic proteins were visualized by a chemiluminescent streptavidin alkaline phosphatase system using an Epson scanner (Torrance, Calif.) and the NIH Image program. PR-39 was labeled with biotin hydrazide at the carboxy-terminus (Pierce Chemical Co., Rockford, Ill.) and purified by gel filtration chromatography.

The target of data set [6] is T1, cell-free NADPH oxidase (human neutrophil cytosol and membranes) (Homo sapiens, UniProt P14598).
T1 construct: 10^6 cell equivalents of human neutrophil cytosol; from tissue; host or cells: human peripheral blood neutrophils (cytosol and deoxycholate-solubilized membranes)
T1 sequence (P14598 1-390): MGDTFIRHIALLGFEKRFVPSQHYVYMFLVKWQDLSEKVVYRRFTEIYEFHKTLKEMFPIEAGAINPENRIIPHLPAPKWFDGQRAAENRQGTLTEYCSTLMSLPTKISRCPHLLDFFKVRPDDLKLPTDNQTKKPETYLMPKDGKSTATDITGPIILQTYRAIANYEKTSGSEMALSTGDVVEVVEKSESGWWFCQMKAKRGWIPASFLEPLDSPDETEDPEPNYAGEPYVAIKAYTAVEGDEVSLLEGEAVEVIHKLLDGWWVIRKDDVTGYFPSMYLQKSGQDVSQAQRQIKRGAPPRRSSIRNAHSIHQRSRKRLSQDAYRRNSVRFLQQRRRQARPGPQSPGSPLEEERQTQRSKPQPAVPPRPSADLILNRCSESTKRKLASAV
The data set is described as follows: Cell-free O2- production assay. It is filed as biochemical. The protocol:
Reactions (100 μl) contained 10^6 cell equivalents of human neutrophil cytosol and 5×10^5 cell equivalents of deoxycholate-solubilized membranes prepared from human peripheral blood neutrophils. […] Control reactions contained 5 μg of superoxide dismutase. Superoxide anion generation was calculated based on superoxide dismutase-inhibitable changes in cytochrome c absorbance observed at 551 nm. The reactions were followed for 20 min. after addition of arachidonic acid, with absorbance readings taken at 1-min. intervals. […] Determinations were based on reactions performed in duplicate. • (ii) Binding assays. Neutrophils were disrupted by sonication, and unbroken cells, debris, and granules were removed by centrifuigation (13,000×g for 60 min.). Cytosol fractions were prepared by centrifugation (100,000 g for 45 min.) of the supernatants to remove residual membranes. Cytosolic proteins (15 μg in reducing buffer) were separated on a 7.5% SDS PAGE gel, transferred to PVDF membranes, and probed with biotinylated PR-39 (0.3 μM) for 2 hr. Binding between PR-39 and cytosolic proteins were visualized by a chemiluminescent streptavidin alkaline phosphatase system using an Epson scanner (Torrance, Calif.) and the NIH Image program. PR-39 was labeled with biotin hydrazide at the carboxy-terminus (Pierce Chemical Co., Rockford, Ill.) and purified by gel filtration chromatography.

The test system of data set [7] is Salmonella choleraesuis. It is filed as cell-based. On the procedure: (§1) Plates were incubated at 37° C. for 18 hr. […] Viable bacteria were counted. Tests were repeated on three different days. […] The results were expressed as the mean ± standard deviation. […] S. choleraesuis, ATCC 6962 was used in this experiment. […] Slides were stained with LeukoStat solutions (Fisher, Pittsburgh, Pa.). […] At least 200 neutrophils were examined. […] Tests were repeated on three different days. Results were expressed as the mean±standard deviation.

Data set [8] has as its system Escherichia coli, 25922. The data set is described as follows: MIC/MBC microdilution broth method. The format is cell-based. On the procedure: as §1
For orientation: Broth dilution looks for growth in wells or tubes with falling amounts of substance.

The subject of data set [9] is Salmonella typhimurium. The data set is described as follows: MIC/MBC microdilution broth method. It is filed as cell-based. The conditions noted are these: murium. On the procedure:
as §1

Data set [10] concerns Staphylococcus aureus. The data set is described as follows: MIC/MBC microdilution broth method. It is filed as cell-based. The protocol: as §1
Data set [11] relates to Streptococcus suis. The data set is described as follows: MIC/MBC microdilution broth method. The format is cell-based. The protocol:
as §1

Data set [12] deals with S. typhimurium. The data set is described as follows: Survival of mice after oral S. typhimurium challenge (first experiment). The conditions noted are these: 100 or 250 μg/mouse. It is filed as in vivo, A/J mice. The protocol:
Effect of PR-26 on survival of mice challenged with S. typhimurium. Three separate S. typhimurium challenge studies were conducted with mice. In the first experiment, 45 A/J mice (Jackson Labs, Bar Harbor, Me.) were orally challenged with S. typhimurium. Feed was withdrawn 4 hrs. prior to an oral inoculation. Twenty min. prior to the inoculation with S. typhimurium mice were given a 30 μl dose of a 10% sodium bicarbonate solution in PBS. S. typhimurium, strain KSU007, was started in brain heart infusion broth overnight and then grown for 6 hrs. in Luria Broth Base (GIBCO, Gaithersburg, Md.). After centrifugation, bacteria were suspended in a 1% gelatin solution (final concentration 1.24×10^10 S. typhimurium/ml), and then 25 μl were given orally. Immediately following oral inoculation with S. typhimurium, mice were given 0, 100, or 250 μg of PR-26 in PBS. A second dose of PR-26 or PBS was given 4 hrs. later.

The test system of data set [13] is Escherichia coli, K88.
Protocol: Briefly, 50 μl of twofold serial dilutions (128 to 0.25 μM) of synthetic peptides were dispensed into wells of 96-well tissue culture plates. Bacteria (E. coli, ATCC 25922; E. coli, K88; S. typhimurium, fresh isolate from a dog; Salmonella choleraesuis ATCC 6962; Streptococcus suis, fresh isolate from porcine spleen; and Staphylococcus aureus) from sheep-blood or brain-heart-infusion agar plates were standardized to 0.5 McFarland in demineralized water using a radiometer/sensititre (Chelsea Instrument Ltd., England). The water/bacteria suspension (100 μl) was immediately transferred to 10 ml of cation-adjusted Muller-Hinton broth and 50 μl of the bacterial suspension then were added to each well of the microtiter plate. Plates were incubated for 20 hr. at 37° C. and MICs were determined. Ten microliters of bacterial suspensions in Muller-Hinton broth also were diluted to determine the actual bacterial concentration using standard colony forming unit (CFU) counting. After determination of the MICs, 10 μl of each bacteria-peptide suspension were plated on sheep-blood or brain-heart-infusion agar plates and incubated for 24 hr. at 37° C. to determine the MBCs. MBC was considered that peptide concentration that inhibited 99.9% of the original CFUs (NCCLS, 1990). • (iv) PAE.
The mark [14] stands for this setting: cell-free assay, read-out: IC50 of O2- generation.

Values after ≈ are worked out from the molar mass of the structure shown. Read-outs that look alike come from different tables or passages of the source. Where a SMILES comes first, the peptide text is derived from it.

Regarding “PR-15: COOH-terminal segment 25 to 39 of PR-39; Sequence ID No. 6 (RIPPGFPPRFPPRFP)”, in [1], the “antibacterial activity (clear zones on overlaid gel)” value was “only PR-26 and PR-39 were found to have antibacterial activity”. In addition, the “antibacterial activity (clear zone on bacterial lawn)” value in data set [2] and in data set [3] was “no antibacterial activity” each time. For the same compound, the “neutrophil chemotaxis (migration index)” value in data set [4] is “chemotactic agents”. The “O2- generation by intact neutrophils” value in data set [5] is “did not significantly reduce”. In addition, the “effect on O2- generation” value in [6] (cell-free assay) is recorded as “did not affect”.

Take `CC(C)C[C@H](NC(=O)[C@H](Cc1ccc(O)cc1)NC(=O)[C@@H]1CCCN1C(=O)[C@@H]1CCCN1C(=O)[C@H](CCCNC(=N)N)NC(=O)[C@@H]1CCCN1C(=O)[C@H](CCCNC(=N)N)NC(=O)[C@H](CCCNC(=N)N)NC(=O)[C@@H](N)CCCNC(=N)N)C(=O)N1CCC[C@H]1C(=O)N[C@@H](CCCNC(=N)N)C(=O)N1CCC[C@H]1C(=O)N[C@@H](CCCNC(=N)N)C(=O)N1CCC[C@H]1C(=O)N1CCC[C@H]1C(=O)N1CCC[C@H]1C(=O)N[C@@H](Cc1ccccc1)C(=O)N[C@@H](Cc1ccccc1)C(=O)N1CCC[C@H]1C(=O)O` [PR-19] (H-RRRPRPPYLPRPRPPPFFP-OH): in data set [6] (setting [14]), the IC50 was roughly 5 µM.

Consider `CC[C@H](C)[C@H](NC(=O)[C@H](CCCNC(=N)N)NC(=O)[C@@H]1CCCN1C(=O)[C@@H]1CCCN1C(=O)[C@H](CC(C)C)NC(=O)[C@H](CCCNC(=N)N)NC(=O)[C@@H]1CCCN1C(=O)[C@@H]1CCCN1C(=O)[C@H](Cc1ccccc1)NC(=O)[C@H](Cc1ccccc1)NC(=O)[C@@H]1CCCN1C(=O)[C@@H]1CCCN1C(=O)[C@@H]1CCCN1C(=O)[C@H](CCCNC(=N)N)NC(=O)[C@@H]1CCCN1C(=O)[C@H](CCCNC(=N)N)NC(=O)[C@@H]1CCCN1C(=O)[C@H](CC(C)C)NC(=O)[C@H](Cc1ccc(O)cc1)NC(=O)[C@@H]1CCCN1C(=O)[C@@H]1CCCN1C(=O)[C@H](CCCNC(=N)N)NC(=O)[C@@H]1CCCN1)C(=O)O` [PR-23] (H-PRPPYLPRPRPPPFFPPRLPPRI-OH), for which, in [6] (setting [14]), the IC50 is roughly 25 µM.

Consider `CC[C@H](C)[C@H](NC(=O)[C@H](CCCNC(=N)N)NC(=O)[C@@H]1CCCN1C(=O)[C@@H]1CCCN1C(=O)[C@H](CC(C)C)NC(=O)[C@H](CCCNC(=N)N)NC(=O)[C@@H]1CCCN1C(=O)[C@@H]1CCCN1C(=O)[C@H](Cc1ccccc1)NC(=O)[C@H](Cc1ccccc1)NC(=O)[C@@H]1CCCN1C(=O)[C@@H]1CCCN1C(=O)[C@@H]1CCCN1C(=O)[C@H](CCCNC(=N)N)NC(=O)[C@@H]1CCCN1C(=O)[C@H](CCCNC(=N)N)NC(=O)[C@@H]1CCCN1C(=O)[C@H](CC(C)C)NC(=O)[C@H](Cc1ccc(O)cc1)NC(=O)[C@@H]1CCCN1C(=O)[C@@H]1CCCN1C(=O)[C@H](CCCNC(=N)N)NC(=O)[C@@H]1CCCN1C(=O)[C@H](CCCNC(=N)N)NC(=O)[C@H](CCCNC(=N)N)NC(=O)[C@@H](N)CCCNC(=N)N)C(=O)O` [PR-26] (H-RRRPRPPYLPRPRPPPFFPPRLPPRI-OH), for which the MBC is 2 µM (≈ 6.46 µg/mL) in data set [7]; 8 µM (≈ 25.8 µg/mL) in [8]; 2 µM (≈ 6.46 µg/mL) in data set [9]; greater than 64 µM in [11]; 4 µM (≈ 12.9 µg/mL) in [13]. For the same compound, the MIC is 1 µM (≈ 3.23 µg/mL) in [7]; 2 µM (≈ 6.46 µg/mL) in data set [8]; 2 µM (≈ 6.46 µg/mL) in [9]; greater than 250 µM in [10]; 16 µM (≈ 51.7 µg/mL) in [11]; 1 µM (≈ 3.23 µg/mL) in [13]. In addition, the toxicity in mice result in data set [12] is on record as “no evidence of toxicity”. The same compound yielded an IC50 in data set [6] of roughly 1 µM.

As to “PR-14: NH2-terminal segment 1 to 14 of PR-39; Sequence ID No. 7 (RRRPRPPYLPRPRP)”, the “antibacterial activity (clear zones on overlaid gel)” value in data set [1] is “only PR-26 and PR-39 were found to have antibacterial activity”. Besides, the “antibacterial activity (clear zone on bacterial lawn)” value in [2] and in [3] was “no antibacterial activity” throughout. Moreover, in data set [4], the “neutrophil chemotaxis (migration index)” value is listed as “chemotactic agents”. Also, the “O2- generation by intact neutrophils” value in data set [5] is recorded as “did not significantly reduce”. In addition, in [6] (cell-free assay), the “concentrations at which O2- generation was reduced” value is recorded as “greater than 25 μM”.

Take “PR-16: central segment 11 to 26 of PR-39; Sequence ID No. 5 (RPRPPPFFPPRLPPRI)”: the “antibacterial activity (clear zones on overlaid gel)” value in data set [1] is “only PR-26 and PR-39 were found to have antibacterial activity”. Also, the “antibacterial activity (clear zone on bacterial lawn)” value in [2] and in [3] was “no antibacterial activity” in each case. In addition, the “neutrophil chemotaxis (migration index)” value in [4] is listed as “chemotactic agents”. In addition, the “O2- generation by intact neutrophils” value in data set [5] is reported as “did not significantly reduce”. Also, in data set [6] (cell-free assay), the “effect on O2- generation” value is listed as “did not affect”.
